# Experimental data from US11904057B2, “Nanoparticle-hydrogel composite for nucleic acid molecule delivery” (The United States of America, as represented by the …, priority 2018, dated 2024).
# Legend:
# [1] = system: H2052 cells; assay: Specificity of endocytosis inhibitors (Transferrin / Dextran uptake, flow cytometry); type: cell-based, human; settings: Transferrin and Dextran (70 kD) markers, 1 h
# Description: FIGS. 10A-10D. Determining the effect of chemical inhibitors on endocytic uptake of Transferrin and Dextran (70 kD), the markers for clathrin-dependent and macropinocytic pathways, in H2052 human mesothelioma cells. Flow cytometric histograms of cells treated with (FIG. 10A) Rhodamine-labeled Transferrin for 1 h in presence or absence of Cytochalasin D, Dynasore, EIPA and cells treated (FIG. 10B) with Rhodamine-labeled Transferrin for 1 h in presence or absence of Cytochalasin D, Dynasore, EIPA. Flow cytometric histograms of cells (FIG. 10C) treated with FITC-labeled Dextran and cells treated with FITC-labeled Dextran (FIG. 10D) for 1 h in presence or absence of Nystatin.
# Flow cytometry. In vitro miRNA transfection efficiency of nanoparticles was determined using human mesothelioma cell H2052 (ATCC). For flow cytometry, 1.2×10^5 cells were seeded on 6 well plate 24 h before treatment and allowed to grow under normal culture conditions. FAM (6-carboxyfluorescein, 5′ end)-labeled scrambled miRNA (Thermo Fisher) was complexed with Peptide 1 in a 10:1 N/P ratio according to the protocol described above. Nanoparticles obtained were diluted with optiMEM (Thermo Fisher) to maintain a final miRNA concentration of 40 nM. Complexes of commercial transfection agents (In vivo jet PEI, Polyplus-transfection and DharmaFECT, Dharmacon) and equivalent amount of miRNA were prepared according to manufacturers' instruction. […] To determine the specificity of the inhibitors towards each endocytic pathway in H2052 cells, cellular internalization of Rhodamine or FITC-labeled Transferrin (marker for clathrin mediated uptake, Thermo Fisher) and Rhodamine or FITC-labeled Dextran (70 kD, marker for micropinocytosis, Thermo Fisher) in presence and absence of inhibitors were analyzed with flow cytometry. […] Median fluorescence intensity (MFI) for gated live cell population was determined for cells treated with each inhibitor and normalized with respect to the sample without inhibitor treatment.
# [2] = system: FAM-labeled scrambled miRNA; assay: Fluorescence-based binding assay between peptides and miRNA; settings: 30 nM FAM-miRNA; peptide vs miRNA molar ratio 0.3125 to 1000; complexed in water, diluted with 25 mM HEPES pH 7.4
# Description: Binding interactions among peptides and miRNA were studied using a fluorescence measurement. Scrambled miRNA (sequence mismatched with all possible mRNAs in human) labeled with FAM (6-carboxyfluorescein, 5′ end) was mixed with peptides having peptide vs miRNA molar ratio ranging from 0.3125 to 1000. Complexation was first performed in water, followed by dilution of the complex with HEPES (25 mM HEPES, pH 7.4) to keep pH of the suspension unaltered across all peptide concentrations. With increasing mole ratio, FAM fluorescence gradually gets quenched resulting from peptide-mediated condensation. […] Concentrations of Peptide 1 to induce maximum quenching were close to a molar ratio of 50:1 between Peptide 1 and miRNA which corresponds to an N/P ratio (charge ratio) of 10:1. Accordingly, a ratio of 10:1 as the N/P ratio was used for further assessment.
# Fluorescence-based binding assay was used to determine interaction between peptides and miRNA. […] FAM fluorophore on miRNA was excited at 490 nm and emission at 520 nm was recorded using a microplate reader (Tecan Infinite 200) with a band-pass filter of 20 nm. A PTI fluorimeter was used to record fluorescence spectrum for Peptide 1/miRNA nanoparticles at N/P ratio 10:1 (molar ratio of 50:1, Peptide 1 vs miRNA) in the emission range of 500-700 nm.
# [3] = Circular dichroism spectroscopy of Peptide 1 with miRNA / heparin; type: physicochemical
# Description: Circular Dichroism Spectroscopy. Secondary structure of Peptide 1 in presence or absence of added miRNA was determined using Circular Dichroism (CD) spectroscopy. For recording CD spectra in water, 150 μL from the aqueous solutions of Peptide 1 was mixed with 150 μL of an aqueous solution of scrambled miRNA to maintain peptide vs miRNA N/P ratios at 10:1, 5:1, 2:1 and 1:1. These N/P ratios correspond to peptide vs miRNA mole ratios of 50:1, 25:1, 10:[…], respectively. Nanoparticles and soluble peptides of 300 μL total volume were equilibrated for 30 min at 37° C. with agitation. Final concentration of miRNA was maintained at 5 μM. Samples were transferred into a quartz cell of path-length 1 mm and data collection were initiated immediately. Ellipticity was measured over a wavelength range of 190-260 nm at 37° C., using 1 nm step size and a set of 3-5 scans. Raw data was corrected by subtracting the absorbance of samples from those of miRNA and converted to mean residue ellipticity using the equation: [θ]=θobs/(10*l*c*r) where θobs is the measured ellipticity (mdeg), l is the path length (0.1 cm), c is the concentration of peptide (determined from UV absorbance at 220 nm) and r corresponds to the number of amino acid residues in the peptide. […]
# [4] = system: H2052 cells; assay: LDH cytotoxicity assay; type: cell-based, human; settings: 4 h post-incubation
# Description: LDH assay kit (Roche) was used to determine any possible cytotoxicity of Peptide 1/miRNA nanoparticles and soluble Peptide 1. Cell supernatant was taken out after 4 h of treatment and a reaction mixture containing diaphorase/NAD+/iodotetrazolium chloride/sodium lactate was added following manufacturer's instructions to detect any released LDH (Lactate Dehydrogenase). Triton X-100 at a final concentration was used as a high control for maximal releasable LDH, while untreated cells were taken as low control for spontaneous LDH release. Absorbance was measured at 490 nm after 5 minutes of incubation at 37° C. Cytotoxicity was calculated using the equation: (Absorbance^treated−Absorbance^low control/Absorbance^high control−Absorbance^low control)×100.
# [5] = Hydrogel composite formation with different hydrogelating peptides; type: physicochemical; settings: 24 h post-assembly, irrespective of nanoparticle loaded
# Description: Preparation and characterization of hydrogel composites. Required amount of miRNA was diluted in water and mixed with an aqueous solution of Peptide 1 in a 10:1 N/P ratio to maintain a final volume of 25 μL. The suspension was incubated for 30 min at 37° C. with constant agitation and the resulting nanoparticles were mixed with 25 μL of chilled 2×HBS (50 mM HEPES 300 mM NaCl, pH 7.4). 50 μL of 1% (w/v) solution of a hydrogelating peptide (Peptides 1, 2, 3 and 4) was prepared in a chilled 25 mM HEPES (pH 7.4), mixed with an equal volume of nanoparticle suspension and incubated at 37° C. for overnight to afford 0.5 wt % hydrogel composites. Gel composites containing 1% of hydrogelating peptide was also prepared similarly. For Transmission Electron Microscopy of gel composites, ˜4 μL of the sample was deposited onto 200 mesh carbon coated copper grids and allowed to adhere for 30 seconds. The excess sample was removed with a filter paper. Uranyl acetate (5 μL) was used to stain the grids for 30 seconds. Grids were dried for 2-3 minutes. Images were acquired using a Tecnai T12 transmission electron microscope.
Molecule,Endocytic pathway inhibited [1],Extent of quenching of FAM fluorescence (peptide-mediated condensation of miRNA) [2],other results
CCN(c1nc(N)c(C(=O)NC(=N)N)nc1Cl)C(C)C [EIPA],selective inhibitor of micropinocytosis,,
VLTKVKTKV^DPPTKVEVKVLV-NH2 [Peptide 3],,not able to promote significant condensation of miRNA,
O=C(N/N=C/c1ccc(O)c(O)c1)c1cc2ccccc2cc1O [Dynasore],inhibitors for clathrin-dependent pathways,,
VKVKVKVKV^DPPTKVKVKVKV-NH2 [Peptide 1],,maximal,"Folding into a β-hairpin structure in the nanoparticles ([3]; N/P ratio 10:1, water): not enough to induce any significant folding; Heparin concentration at which evolution of β-sheet structure starts ([3]; Peptide 1 complexed with miRNA at N/P 10:1, water, 37° C.): 50 µg/mL; Cytotoxicity as compared to positive control Triton X-100 [4]: 20%; Formation of gel-like material when used as self-assembling peptide [5]: does not form a gel-like material"
C=C1[C@@H](C)[C@H]2[C@H](Cc3ccccc3)NC(=O)[C@]23[C@H](OC(C)=O)/C=C/[C@@](C)(O)C(=O)[C@@H](C)C/C=C/[C@H]3[C@@H]1O [Cytochalasin D],inhibitors for clathrin-dependent pathways,,
